Values belong to the molecule of their own block, whether it stands above or below them. Where a SMILES comes first, the peptide text is derived from it.
Key:
[1] = FUTHAN compared with aprotinin and AEBSF; cited from earlier work
[2] = system: Stratum Corneum Tryptic Enzyme (SCTE); conditions: reported rosacea study; cited from earlier work
KLK5/SCTE = biological target: T1, KLK5/SCTE (Homo sapiens, UniProt Q9Y337); test: enzyme inhibition KLK5/SCTE; assay type: biochemical; conditions: approximate; read-out: IC50 (50% inhibition) KLK5/SCTE
T1 sequence (Q9Y337 23-293): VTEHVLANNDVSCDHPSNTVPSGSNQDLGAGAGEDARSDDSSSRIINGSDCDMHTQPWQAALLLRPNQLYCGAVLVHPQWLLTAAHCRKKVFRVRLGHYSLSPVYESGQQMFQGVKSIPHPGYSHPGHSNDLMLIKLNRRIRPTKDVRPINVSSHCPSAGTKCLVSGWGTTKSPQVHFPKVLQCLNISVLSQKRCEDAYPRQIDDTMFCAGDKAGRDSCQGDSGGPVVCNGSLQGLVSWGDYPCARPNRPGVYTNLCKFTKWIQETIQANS
From the text: (§1) It is understood that aspartame, FUTHAN, and combinations thereof may be utilized.

[3] = system: total protease activity in skin extracts; test: inhibition of total protease activity in skin extracts; assay type: biochemical, human; conditions: skin extracts from three individuals; FIG. 2
various serine proteases = test: inhibition of various serine proteases compared with known inhibitors; assay type: biochemical; conditions: FIG. 3
KLK7/SCCE = KLK7/SCCE (Homo sapiens, UniProt P49862); test: enzyme inhibition KLK7/SCCE; assay type: biochemical; conditions: approximate; read-out: IC50 (50% inhibition) KLK7/SCCE
Chain of KLK7/SCCE (P49862 30-253): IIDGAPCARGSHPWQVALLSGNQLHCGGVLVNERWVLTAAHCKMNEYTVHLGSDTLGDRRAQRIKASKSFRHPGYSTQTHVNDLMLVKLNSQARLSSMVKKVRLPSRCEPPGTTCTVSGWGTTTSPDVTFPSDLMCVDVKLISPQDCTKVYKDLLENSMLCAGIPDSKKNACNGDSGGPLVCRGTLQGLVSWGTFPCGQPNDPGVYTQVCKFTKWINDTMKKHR
From the text: as §1

pancreatic kallikrein = pancreatic kallikrein (Homo sapiens, UniProt P06870); test: enzyme inhibition pancreatic kallikrein; assay type: biochemical; conditions: approximate; read-out: IC50 (50% inhibition) pancreatic kallikrein
Chain of pancreatic kallikrein (P06870 25-262): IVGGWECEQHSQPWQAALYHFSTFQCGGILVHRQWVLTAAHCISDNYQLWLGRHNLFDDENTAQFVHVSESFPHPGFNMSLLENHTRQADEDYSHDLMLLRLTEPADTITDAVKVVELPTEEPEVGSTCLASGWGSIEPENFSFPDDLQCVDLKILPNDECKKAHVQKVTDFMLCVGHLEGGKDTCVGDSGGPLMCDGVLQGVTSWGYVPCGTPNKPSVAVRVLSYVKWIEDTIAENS

chymotrypsin = chymotrypsin (Bos taurus, UniProt P00766); conditions: literature (Niinobe et al., Fujii et al.); cited from earlier work
COX-1 = COX-1 (Homo sapiens, UniProt P23219); test: COX-1 enzyme inhibition
Chain of COX-1 (P23219 24-599): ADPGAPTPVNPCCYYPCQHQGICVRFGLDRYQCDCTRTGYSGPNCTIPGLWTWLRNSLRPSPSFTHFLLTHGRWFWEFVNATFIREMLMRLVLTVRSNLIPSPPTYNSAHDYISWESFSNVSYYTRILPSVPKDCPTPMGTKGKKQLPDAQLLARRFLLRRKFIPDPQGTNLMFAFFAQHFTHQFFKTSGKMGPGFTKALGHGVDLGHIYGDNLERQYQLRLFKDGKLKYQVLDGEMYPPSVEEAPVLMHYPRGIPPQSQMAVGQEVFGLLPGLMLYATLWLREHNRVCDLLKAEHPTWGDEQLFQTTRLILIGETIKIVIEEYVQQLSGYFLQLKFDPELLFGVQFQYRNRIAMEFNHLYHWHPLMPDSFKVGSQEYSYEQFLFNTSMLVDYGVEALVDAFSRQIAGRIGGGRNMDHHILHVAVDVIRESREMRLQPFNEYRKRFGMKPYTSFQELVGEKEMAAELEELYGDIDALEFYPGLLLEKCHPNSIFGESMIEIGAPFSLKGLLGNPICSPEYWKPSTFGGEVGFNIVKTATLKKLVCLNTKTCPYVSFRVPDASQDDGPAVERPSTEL

[4] = bone density in human subjects ingesting aspartame (bone scans, dental records); conditions: subject
[5] = pigs fed aspartame over a two month period: bleeding time and platelet count; assay type: in vivo; conditions: pigs fed 75-300 mg aspartame/100 weight/day over a two month period
From the text: Recent chemical evidence has documented the mechanism of the analgesia and blood thinning properties of ASP as attributable in part to the compound's ability to inhibit the cyclo-oxygenase enzymes known as COX-1 and COX-2. […] It is contemplated that a preferred embodiment may use a coated tablet or pill that may prevent or reduce hydrolysis of the aspartame ester group in the acidic conditions of the stomach.

COX-2 = biological target: T2, COX-2 (Homo sapiens, UniProt P35354); test: COX-2 enzyme inhibition
T2 sequence (P35354 18-604): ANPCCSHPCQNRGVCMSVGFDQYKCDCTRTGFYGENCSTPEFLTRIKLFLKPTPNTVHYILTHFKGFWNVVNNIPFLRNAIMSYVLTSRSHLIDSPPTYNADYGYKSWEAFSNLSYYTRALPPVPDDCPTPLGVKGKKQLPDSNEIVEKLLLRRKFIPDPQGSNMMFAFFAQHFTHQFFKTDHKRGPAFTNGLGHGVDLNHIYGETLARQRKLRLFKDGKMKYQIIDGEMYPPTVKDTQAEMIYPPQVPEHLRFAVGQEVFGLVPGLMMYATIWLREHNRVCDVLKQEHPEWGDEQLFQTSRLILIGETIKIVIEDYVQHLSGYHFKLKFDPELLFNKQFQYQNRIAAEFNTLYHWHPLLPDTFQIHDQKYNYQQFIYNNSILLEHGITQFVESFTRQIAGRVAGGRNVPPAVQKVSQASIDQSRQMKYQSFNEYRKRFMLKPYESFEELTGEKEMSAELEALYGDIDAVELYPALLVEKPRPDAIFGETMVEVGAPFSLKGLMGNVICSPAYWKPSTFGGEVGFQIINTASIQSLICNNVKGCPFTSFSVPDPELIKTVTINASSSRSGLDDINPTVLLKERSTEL

[6] = aspartame lotion on acetic acid burn; assay type: in vivo, human; conditions: lotion application; burn from acetic acid spilled on an individual's leg
From the text: It is also contemplated that the current invention may also help the redness of the skin and/or promote healing for the same injury.

SRT-ORT mouse model = test: SRT-ORT osteoarthritis mouse model, aspartame chow, X-ray analyses; assay type: in vivo; conditions: chow containing 4 mg Aspartame/g, 12-18 months, vs non-supplemented chow
From the text: It has been reported that isotopically labeled Aspartame/Asp-Phe distributes to various tissues including the bones (See Aspartame Physiology and Biochemistry, Ed. Stegink, Lewis, D. and Filner, L. J. (1984), Marcel Decker, NY, Chapter 8, “Tissue Distribution of Orally Administered Isotopically Labeled Aspartame in Rat.” By Matsuzawa, Y., O'Hara, Y., pp. 161-199.). It is well established that the ester group on aspartame is labile to both acid hydrolysis, as exists in the stomach, and to enzyme esterases that are common to all body fluids and tissues. […] It is contemplated that this mechanism will enhance the transfer of essential minerals from the digestive system to the blood, tissues, and cells. Further evidence that aspartame (Asp-Phe) ingestion contributes to muscle (tissue) density and bone density enhancement comes from mouse studies. The SRT-ORT mouse model is a genetically deficient mouse strain obtained from NIH with a natural history of developing osteoarthritis. Blinded experiments were conducted with littermates divided into two groups, one fed chow containing 4 mg Aspartame/g. and the other fed non-supplemented chow over a period of 12-18 months. X-ray analyses were performed on the cortex and marrow spaces of the right and left femurs, as well as the quadriceps in the femoris area and joint calcification. […] The increase in calcification in the treated animal cohort at the injured joints gave a P value <0.0001. An unexpected increase in quadriceps muscle mass index for the treated animals gave a P value of 0.0185. These analyses were preformed on an n value of 23 animals in the treated set and 18 animals in the controls. Therefore, it is contemplated that animals fed aspartame over an extended time period have increased bone density and muscle mass indicating increased or enhanced calcium, and perhaps other minerals, bioavailability and utility.

[7] = chronic anemia patients using fruit flavored drink with aspartame; assay type: in vivo, human; conditions: fruit flavored drink combination with aspartame
From the text: The current invention may utilize a pharmaceutically effective amount of aspartame or Asp-Phe for the treatment of sickle cell anemia and or chronic anemia in general. […] It is also contemplated that the current invention may be utilized as a food supplement product with beneficial attributes to chronic anemia patients which may include most cancer patients under treatment.

[8] = in excess of 300 mg/day for several years

Molecule: NCCc1ccc(S(=O)(=O)F)cc1 [AEBSF, 4-(2-aminoethyl)-benzenesulfonyl fluoride]
toxicity / side effects [1]: known serious side effects
inhibition of SCTE [2]: effective in inhibiting this enzyme

Molecule: CS(=O)(=O)O.CS(=O)(=O)O.N=C(N)Nc1ccc(C(=O)Oc2ccc3cc(C(=N)N)ccc3c2)cc1 [FUTHAN, 6-amidino-2-naphthyl p-guanidinobenzoate dimethanesulfonate]
IC50 (KLK5/SCTE): ~2 µM
inhibition of total protease activity in skin extracts [3]: efficacy of the inhibitor
inhibitor strength compared with aprotinin and AEBSF (various serine proteases): weaker
IC50 (KLK7/SCCE): ~80 µM
IC50 (pancreatic kallikrein): ~20 µM
inhibition of chymotrypsin or enzymes with chymotrypsin specificity (chymotrypsin): not chymotrypsin

IC50 (COX-1): < 1 µM
IC50 (COX-2): < 1 µM
Molecule: COC(=O)[C@H](Cc1ccccc1)NC(=O)[C@@H](N)CC(=O)O [aspartame, N-L-alpha-aspartyl-L-phenylalanine 1-methyl ester] (H-Asp-Phe-OMe)
bone density from dental records ([4]; 150-300 mg/day over several years): bone density increase
density of the right and left femur, mean [4, 8]: 1.2 g/cm2
femur density relative to the density of a young adult [4, 8]: 122%
lumbar spine bone density (L1-L4) [4, 8]: 1.74 g/cm2
lumbar spine bone density relative to the density of a young adult [4, 8]: 148%
bleeding times [5]: significantly increased
platelet counts [5]: elevated
pain associated with a burn [6]: relieved the pain
calcification at the injured joints (SRT-ORT mouse model; P value <0.0001): increase
cortical bone density (SRT-ORT mouse model; P value of 0.0058): increase
quadriceps muscle mass index (SRT-ORT mouse model; P value of 0.0185): increase
energy and muscle pain in chronic anemia patients [7]: more energy and less muscle pain

Molecule: Aprotinin
toxicity / side effects [1]: known serious side effects
inhibition of SCTE [2]: effective in inhibiting this enzyme
